Measured values published in ChEMBL document CHEMBL6134894, “Medoxomil Prodrug Strategies” (J Med Chem, 2025).
Each block holds one compound with its values, some of them ahead of it.

What was measured:
[1] = Water solubility of the compound at pH 7.4 by HPLC analysis; format: physicochemical
[2] = Oral bioavailability in Sprague-Dawley rat; format: ADME, organism-based; settings: in vivo
[3] = Oral bioavailability in Beagle dog; format: ADME, organism-based, Canis lupus familiaris; settings: in vivo
[4] = Lipophilicity, logP of the compound; format: physicochemical; settings: octanol/water
[5] = Permeability across apical to basolateral side in human Caco-2 cells; format: ADME, cell-based; settings: read-out: permeability
[6] = Inhibition of ADP-induced platelet aggregation in New Zealand White rabbit; format: functional, Oryctolagus cuniculus
[7] = Oral bioavailability in dog at 0.03 mg/kg; format: ADME, organism-based, Canis lupus familiaris; settings: in vivo
[8] = test system: Human immunodeficiency virus 1; assay: Antiviral activity against HIV-1 infected in human MT4 cells assessed as inhibition of viral growth; format: functional, organism-based; settings: Human immunodeficiency virus 1, MT4
[9] = Half life in Wistar rat at 20 mg/kg, po by LC-MS/MS analysis; format: ADME, organism-based; settings: in vivo
[10] = Toxicity in Wistar rat assessed as effective dose; settings: in vivo, 6 h
[11] = AUC in human at 20 mg/kg, po by LC-MS/MS analysis; format: ADME, organism-based; settings: in vivo
[12] = Cmax in human at 20 mg/kg, po by LC-MS/MS analysis; format: ADME, organism-based; settings: in vivo
[13] = Oral bioavailability in rat; format: ADME, organism-based; settings: in vivo
[14] = Oral bioavailability in Sprague-Dawley rat at 10 mg/kg measured for 24 hrs by LC-MS/MS analysis; format: ADME, organism-based; settings: in vivo

- solubility [1]: > 200 µg/mL
Structure (SMILES): Cc1oc(=O)oc1COC(=O)N1CC[C@@H](N2CC/C(=C\C3=C(C(=O)O)N4C(=O)[C@@H](NC(=O)/C(=N\O)c5nsc(N)n5)[C@H]4SC3)C2=O)C1

- bioavailability [2]: 35%
Structure (SMILES): C=C(c1ccc(C(=O)OCC)cc1)c1cc2c(cc1C)C(C)(C)CCC2(C)C

- bioavailability [3]: 94.2%
Structure (SMILES): C[C@](N)(Cc1ccc(O)c(O)c1)C(=O)O [METHYLDOPA]

- logP ([4]; read-out: logP): 2.64
Structure (SMILES): Cc1oc(=O)oc1COC(=O)CC[C@H](NC(=O)c1ccc(CCc2c[nH]c3[nH]c(N)nc(=O)c23)cc1)C(=O)OCc1oc(=O)oc1C

- bioavailability [2]: 75%
Structure (SMILES): C=C(c1ccc(C(=O)O)cc1)c1cc2c(cc1C)C(C)(C)CCC2(C)C [BEXAROTENE]

- Papp A→B [5]: 2.8 ×10⁻⁶ cm/s
Structure (SMILES): CCOc1nc2cccc(C(=O)OCc3oc(=O)oc3C)c2n1Cc1ccc(-c2ccccc2-c2noc(=O)[nH]2)cc1 [AZILSARTAN MEDOXOMIL]

- bioavailability [7]: 23%
Structure (SMILES): Cc1oc(=O)oc1COC(=O)N1CCC(CC[C@@H]2CCCN(CC(=O)N[C@H](C)CC(=O)O)C2=O)CC1
- inhibition (INH) [6]: 100%

Structure (SMILES): Nc1ncnc2c1ncn2CCOCP(=O)(O)O [ADEFOVIR]
- EC50 [8]: 10.4 µM

- half-life [9]: 30 min
Structure (SMILES): CCCc1nc(C(C)(C)O)c(C(=O)O)n1Cc1ccc(-c2ccccc2-c2nnn[nH]2)cc1 [OLMESARTAN]

- Papp A→B [5]: 0.636 ×10⁻⁶ cm/s
Structure (SMILES): CCOc1nc2cccc(C(=O)O)c2n1Cc1ccc(-c2ccccc2-c2noc(=O)[nH]2)cc1 [AZILSARTAN]

- logP [4]: 0.75
Structure (SMILES): Nc1nc2[nH]cc(CCc3ccc(C(=O)N[C@@H](CCC(=O)O)C(=O)O)cc3)c2c(=O)[nH]1 [PEMETREXED]

- bioavailability [2]: 12%
Structure (SMILES): C=C(c1ccc(C(=O)OCc2oc(=O)oc2C)cc1)c1cc2c(cc1C)C(C)(C)CCC2(C)C

Structure (SMILES): CCCCc1nc(Cl)c(C(=O)O)n1Cc1ccc(-c2ccccc2-c2nn[nH]n2)cc1 [CARBOXYLIC ACID METABOLITE]
- ED50 [10]: 9.05 µg/kg

Structure (SMILES): CC1Sc2c(C(=O)O)c(=O)c3cc(F)c(N4CCNCC4)cc3n21 (stereo unspecified) [ULIFLOXACIN]
- AUC [11]: 22200 ng·h/mL
- Cmax [12]: 630 ng/mL

- logP ([4]; read-out: logP): 1.72
Structure (SMILES): Cc1oc(=O)oc1COC(=O)CC[C@H](NC(=O)c1ccc(CCc2c[nH]c3[nH]c(N)nc(=O)c23)cc1)C(=O)O

- F [13]: 1%
- bioavailability [14]: 20%
Structure (SMILES): COC(=O)N[C@H](C(=O)N[C@@H](Cc1ccccc1)[C@@H](O)CN(Cc1ccc(-c2ccccn2)cc1)NC(=O)[C@@H](NC(=O)OC)C(C)(C)C)C(C)(C)C [ATAZANAVIR]

- bioavailability [3]: 92.1%
Structure (SMILES): Cc1oc(=O)oc1COC(=O)[C@@](C)(N)Cc1ccc(O)c(O)c1

Structure (SMILES): Cc1oc(=O)oc1COP(=O)(O)COCCn1cnc2c(N)ncnc21
- EC50 [8]: 10.6 µM
